Measured values taken from US9409916B2, “Piperidinone carboxamide spirohydantoin CGRP receptor antagonists” (Merck Sharp & Dohme Corp., priority 2011, dated 2016).

These molecules were tested against T1, recombinant human CL receptor/RAMP1 (Homo sapiens, UniProt O60894+Q16602) (assay: Recombinant receptor binding assay (125I-hCGRP)). Conditions: membranes of HEK 293 cells expressing human CL receptor/RAMP1, 10 pM 125I-hCGRP.
T1 construct: expressed in transfected cells; membranes
Method: RECOMBINANT RECEPTOR: Human CL receptor (Genbank accession number L76380) was subcloned into the expression vector pIREShyg2 (BD Biosciences Clontech) as a 5′NheI and 3′ PmeI fragment. Human RAMP1 (Genbank accession number AJ001014) was subcloned into the expression vector pIRESpuro2 (BD Biosciences Clontech) as a 5′NheI and 3′NotI fragment. HEK 293 cells (human embryonic kidney cells; ATCC #CRL-1573) were cultured in DMEM with 4.5 g/L glucose, 1 mM sodium pyruvate and 2 mM glutamine supplemented with 10% fetal bovine serum (FBS), 100 units/mL penicillin and 100 μg/mL streptomycin, and maintained at 37° C. and 95% humidity. Cells were subcultured by treatment with 0.25% trypsin with 0.1% EDTA in HBSS. Stable cell line generation was accomplished by co-transfecting 10 μg of DNA with 30 μg Lipofectamine 2000 (Invitrogen) in 75 cm^2 flasks. CL receptor and RAMP1 expression constructs were co-transfected in equal amounts. Twenty-four hours after transfection the cells were diluted and selective medium (growth medium+300 μg/mL hygromycin and 1 μg/mL puromycin) was added the following day. A clonal cell line was generated by single cell deposition utilizing a FACS Vantage SE (Becton Dickinson). Growth medium was adjusted to 150 μg/mL hygromycin and 0.5 μg/mL puromycin for cell propagation.
RECOMBINANT RECEPTOR BINDING ASSAY: Cells expressing recombinant human CL receptor/RAMP1 were washed with PBS and harvested in harvest buffer containing 50 mM HEPES, 1 mM EDTA and Complete™ protease inhibitors (Roche). The cell suspension was disrupted with a laboratory homogenizer and centrifuged at 48,000 g to isolate membranes. The pellets were resuspended in harvest buffer plus 250 mM sucrose and stored at −70° C. For binding assays, 20 μg of membranes were incubated in 1 mL binding buffer (10 mM HEPES, pH 7.4, 5 mM MgCl2, and 0.2% BSA) for 3 h at room temperature containing 10 pM ^125I-hCGRP (GE Healthcare) and antagonist. The assay was terminated by filtration through 96-well GFB glass fiber filter plates (PerkinElmer) that had been blocked with 0.05% polyethyleneimine. […]

T1 sequence (Q16602 23-461): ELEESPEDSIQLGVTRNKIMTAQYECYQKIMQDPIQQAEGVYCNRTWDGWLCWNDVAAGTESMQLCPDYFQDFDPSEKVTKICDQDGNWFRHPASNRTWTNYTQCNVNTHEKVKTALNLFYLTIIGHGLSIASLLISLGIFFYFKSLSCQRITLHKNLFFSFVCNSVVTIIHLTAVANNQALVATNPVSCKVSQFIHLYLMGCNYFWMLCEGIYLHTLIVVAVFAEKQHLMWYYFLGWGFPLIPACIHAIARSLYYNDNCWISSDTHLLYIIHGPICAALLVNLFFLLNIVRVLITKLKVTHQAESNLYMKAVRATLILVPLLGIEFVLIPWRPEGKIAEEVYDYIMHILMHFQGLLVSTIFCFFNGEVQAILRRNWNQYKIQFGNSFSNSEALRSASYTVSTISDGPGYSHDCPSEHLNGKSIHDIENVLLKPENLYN
T1 sequence (O60894 27-148): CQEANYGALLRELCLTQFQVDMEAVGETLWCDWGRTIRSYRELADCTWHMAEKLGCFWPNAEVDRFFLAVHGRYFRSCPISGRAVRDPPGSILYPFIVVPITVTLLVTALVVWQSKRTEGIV

Ki [nM]	Compound
0.28	C[C@@H]1[C@H](c2cc(F)cc(F)c2F)C[C@H](NC(=O)c2cnc3c(c2)C[C@@]2(C3)C(=O)NC(=O)N2C)C(=O)N1CC(F)(F)F [Example 3]
0.059	C[C@@H]1[C@H](c2c(F)c(F)cc(F)c2F)C[C@H](NC(=O)c2cnc3c(c2)C[C@@]2(C3)C(=O)NC(=O)N2C)C(=O)N1CC(F)(F)F [Example 2, (6R)-3′-Methyl-N-[(3S,5S,6R)-6-methyl-2-oxo-1-(2,2,2-trifluoroethyl)-5-(2,3,5,6-tetrafluorophenyl)piperidin-3-yl]-2′,5′-dioxo-5,7-dihydrospiro[cyclopenta[b]pyridine-6,4′-imidazolidine]-3-carboxamide]
0.061	C[C@@H]1[C@H](c2c(F)ccc(F)c2F)C[C@H](NC(=O)c2cnc3c(c2)C[C@@]2(C3)C(=O)NC(=O)N2C)C(=O)N1CC(F)(F)F [Example 1, (6R)-3′-Methyl-N-[(3S,5S,6R)-6-methyl-2-oxo-1-(2,2,2-trifluoroethyl)-5-(2,3,6-trifluorophenyl)piperidin-3-yl]-2′,5′-dioxo-5,7-dihydrospiro[cyclopenta[b]pyridine-6,4′-imidazolidine]-3-carboxamide]
